What was measured:
RA FLS [1] = conditions: IL-6/IFNγ signaling; cited from earlier work
RA FLS [2] = conditions: cited from earlier work
MΦs = conditions: classical and Syntenin-1-differentiated MΦs; cited from earlier work
RA MΦs = assay: Syntenin-1 stimulation and inhibition in RA MΦs (qRT-PCR, ELISA); format: cell-based, human; conditions: Syntenin-1 1000 ng/mL, 6 h or 24 h vs PBS, FIGS. 2B-2E
Method: FIGS. 2A-K show ligation of Syntenin-1 to SDC-1 expands RA MΦ inflammatory profile independent of IL 5R or PDZ1 function. […] Transcription of IRFs (FIG. 2B) and the inflammatory monokines (FIG. 2C) was assessed by qRT-PCR (n=3-10), and protein levels of IL-6 (FIG. 2D) or TNFα (FIG. 2E) were determined in the conditioned media by ELISA (n=10). […] Data are presented as mean±SEM: significant differences were determined by the Mann-Whitney test, two-way-ANOVA, or one-way ANOVA. *p<0.05, **p<0.01, ***p<0.001, ****p<0.0001. ANOVA, analysis of variance.
(B, C) RA MΦs were treated with PBS (ctrl) or Syntenin-1 (1000 ng/mL) for 6 hours and transcription levels of HIF1α (n=10) (FIG. 3B). GLUT1, RAPTOR, HK2, PFK2, PDK1, PKM2 (FIG. 3C) were quantified by qRT-PCR (n=6). […] FIGS. 3H, 3I) after 24 hours impact of treatment was determined on CD14+CD86+ GLUT1+ frequency by flow cytometry (n=4-5). […] Data are presented as mean±SEM; significant differences were determined by Mann-Whitney test, Student's t-test, two-way-ANOVA, or one-way ANOVA. *p<0.05, **p<0.01, ***p<0.001, ****p<0.0001. ANOVA, analysis of variance.
Quantitative Real-Time PCR. […] Transcription to cDNA and subsequent quantitative real-time PCR analysis was performed using the High-Capacity cDNA Reverse Transcription Kit (Applied Biosystems) and TaqMan Gene Expression Master Mix (Applied Biosystems). […]

C[C@@H]1CCN(C(=O)CC#N)C[C@@H]1N(C)c1ncnc2[nH]ccc12 [Tofacitinib]
RA FLS migration (RA FLS [1]): impaired

O=CC[C@@H](O)[C@H](O)[C@H](O)CO [2-DG, 2-deoxy-D-glucose]
GLUT1 and HK2 transcriptional upregulation (RA FLS [2]; LPS/IFNγ reprogrammed RA FLS): suppressed | upregulation of IRF1/5/7 along with IL-6, IL-8, and CCL2 (RA FLS [2]; RA FLS differentiated by LPS/IFNγ): reversed | citrate accumulation (RA FLS [2]; RA FLS reconfigured by LPS/IFNγ): resolved | metabolic activity expanded via GLUT1, LDHA, and lactate (MΦs): impaired

B1: Syntenin-1: Syntenin-1 protein (1000 ng/ml, NKMAX Co.) used as stimulus (protein, UniProt O00560 2-298, looked up)
Syntenin-1: SLYPSLEDLKVDKVIQAQTAFSANPANPAILSEASAPIPHDGNLYPRLYPELSQYMGLSLNEEEIRANVAVVSGAPLQGQLVARPSSINYMVAPVTGNDVGIRRAEIKQGIREVILCKDQDGKIGLRLKSIDNGIFVQLVQANSPASLVGLRFGDQVLQINGENCAGWSSDKAHKVLKQAFGEKITMTIRDRPFERTITMHKDSTGHVGFIFKNGKITSIVKDSSAARNGLLTEHNICEINGQNVIGLKDSQIADILSTSGTVVTITIMPAFIFEHIIKRMAPSIMKSLMDHTIPEV
expansion of monokines IL-1, TNF-α, IL-6, IL-8 and CCL2 (RA MΦs): > 7 fold
